Reference: ChEMBL document CHEMBL1201862, “PubChem BioAssay data set” (2004)
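96-well plates; 48 h exposure; 5 concentrations. Endpoints by linear interpolation between flanking doses. Not reached: highest tested concentration assigned. GI50 = concentration required for 50% inhibition of growth.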 Activity calls are given as the source filed them. Cut-off read from the data, not from the text of the source: active = GI50 up to about 1.1 µM and inactive = higher.

Legend:
Assay in all cases: growth of human tumour cells (NCI), 48 h
[1] = system: KM-20L2
[2] = system: NCI-H522
[3] = system: HT-29
[4] = system: KM12
[5] = system: SF-268
[6] = system: OVCAR-4
[7] = system: NCI-H23
[8] = system: A549
[9] = system: A498
[10] = system: UACC-257
[11] = system: U-251
[12] = system: OVCAR-8
[13] = system: NCI-H226
[14] = system: RXF 393
[15] = system: SK-MEL-2
[16] = system: COLO 205
[17] = system: UO-31
[18] = system: SNB-75
[19] = system: OVCAR-3
[20] = system: SNB-78
[21] = system: Malme-3M
[22] = system: SW-620
[23] = system: SK-MEL-28
[24] = system: HOP-18
[25] = system: UACC-62
[26] = system: HL-60
[27] = system: HOP-62
[28] = system: DLD-1
[29] = system: HCT-116
[30] = system: OVCAR-5
[31] = system: SR
[32] = system: SK-MEL-5
[33] = system: MOLT-4
[34] = system: SK-OV-3
[35] = system: DMS-273
[36] = system: ACHN
[37] = system: 786-0
[38] = system: M14
[39] = system: M19-MEL
[40] = system: SNB-19
[41] = system: CCRF-CEM
[42] = system: CAKI-1
[43] = system: K562
[44] = system: SF-539
[45] = system: HCC 2998
[46] = system: HOP-92
[47] = system: SF-295
[48] = system: TK-10
[49] = system: IGROV-1
[50] = system: LOX IMVI
[51] = system: NCI-H460
[52] = system: EKVX
[53] = system: RPMI-8226
[54] = system: DMS-114
[55] = system: LXFL 529
[56] = system: HCT-15
[57] = system: SN12C

Measured: GI50

CC(C)[Si](OCC1CC(C[C@H]2CC(C[C@H]3C[C@@H](CO[Si](C(C)C)(C(C)C)C(C)C)OC(C)(C)O3)OC(C)(C)O2)OC(C)(C)O1)(C(C)C)C(C)C (stereo partly specified)
inactive: [1] > 100 µM | [2] > 100 µM | [3] > 100 µM | [4] > 100 µM | [5] > 100 µM | [6] > 100 µM | [7] > 100 µM | [8] > 100 µM | [9] > 100 µM | [10] > 100 µM | [11] > 100 µM | [12] > 100 µM | [13] > 100 µM | [14] > 100 µM | [15] > 100 µM | [16] > 100 µM | [17] > 100 µM | [18] > 100 µM | [19] > 100 µM | [20] > 100 µM | [21] > 100 µM | [22] > 100 µM | [23] > 100 µM | [24] > 100 µM | [25] > 100 µM | [26] > 100 µM | [27] > 100 µM | [28] > 100 µM | [29] > 100 µM | [30] > 100 µM | [31] > 100 µM | [32] > 100 µM | [33] > 100 µM | [34] > 100 µM | [35] > 100 µM | [36] > 100 µM | [37] > 100 µM | [38] > 100 µM | [39] > 100 µM | [40] > 100 µM | [41] > 100 µM | [42] > 100 µM | [43] > 100 µM | [44] > 100 µM | [45] > 100 µM | [46] > 100 µM | [47] > 100 µM | [48] > 100 µM | [49] > 100 µM | [50] > 100 µM | [51] > 100 µM | [52] > 100 µM | [53] > 100 µM | [54] > 100 µM

COc1ccc(/C=N/N=C(\N)NO)c(OC)c1
26.9 µM: [56]
inactive: [2] > 10 µM | [4] 30.3 µM | [5] 48.3 µM | [6] > 100 µM | [7] 46.7 µM | [55] 8.81 µM | [8] 31.8 µM | [57] 67.8 µM | [10] 80.7 µM | [11] > 100 µM | [12] 61 µM | [13] 34.1 µM | [14] 54 µM | [15] 52.4 µM | [16] 49.7 µM | [17] 13.8 µM | [19] 37.7 µM | [20] > 100 µM | [21] 68.7 µM | [22] 45.4 µM | [23] > 100 µM | [24] 14.6 µM | [25] 27.9 µM | [27] 16.2 µM | [28] > 100 µM | [29] 52 µM | [30] 9.77 µM | [32] 59.8 µM | [33] 77.6 µM | [34] 75.2 µM | [36] 21 µM | [37] 57.5 µM | [39] 24.5 µM | [40] > 100 µM | [41] 79.8 µM | [42] 19.2 µM | [43] 15.7 µM | [44] 23.3 µM | [45] 12.2 µM | [46] 11.2 µM | [47] 16.1 µM | [49] > 100 µM | [50] 24.7 µM | [52] 38.3 µM | [53] 84.3 µM | [54] 18.1 µM
